We go through two molecules from patent US4731471A, “(5,6-dichloro-3-oxo-2,3,9,9a-tetrahydrofluoren-7-yl)-alkanoic acids and alkanimidamides bearing novel functional 9a-substituents” (Merck & Co., Inc., priority 1986, dated 1988).

Each structure is given as a SMILES string.

In assay [1] the test system is cerebrocartical tissue slices from cats. The assay is described as follows: in vitro cat cerebrocortical tissue slice assay (HCO3^- -stimulated swelling). The conditions noted are these: Felis catus, racemate. From the text:
This assay is described in detail in articles by: Cragoe, E. J., Jr.; Gould, N. P.; Woltersdorf, O. W., Jr.; Ziegler, C.: Bourke, R. S.; Nelson, L. R.; Kimelberg, H. K.; Waldman, J. B.; Popp, A. J.; Sedransk, N. J. Med. Chem. 1982, 25, 567, and by Rourke, R. S.: Kimelberg, H. K.; Daze, M.; Church, G. Neurochem. Res. 1983, 8, 5.
Cat pial surface slices (~0.5 mm thick) were cut from the cerebral convexities using a Stadie-Riggs microtome without any moistening. Each slice was then weighed on a torsion balance and immediately placed in a Warburg flask containing 2 mL incubation medium at room temperature (22° C.).
The basic composition of the incubation medium in mmol/l was: KCl, 27; NaCl, 100; glucose, 10; KH2 PO4, 1.2: MgSO4, 1.2; CaCl2, 1.3; HEPES (N-2-hydroxyethylpiperazine-N'-2-ethanesulfonic acid (Sigma)). This solution was titrated with NaOH to pH 7.8, and saturated with oxygen by bubbling the gas through the solution.
To obtain HCO3^- dependent swelling, a solution of NaHCO3 in the above medium was added from the side-arm of the flask to slices which had been incubated in 2 mL of medium without added HCO3 at 37° C. for 20 minutes to achieve a final concentration of 5 mmol. The slices were then incubated for an additional 40 minutes. For control experiments,0.5 mL of the medium without HCO3^- was similarly added from the side-arm. Inhibitors, when used, were present with the slices throughout the 60 minute incubation period. After 60 minutes, the tissue slices were separated from the medium by careful vacuum filtration, re-weighed, and then homogenized (10% w/v suspension) in 1N perchloric acid and then centrifuged. The supernatant was then assayed for electrolytes as previously described.
The tissue content of electrolytes is always expressed as micromoles per gram of the initial wet weight. Percent swelling was calculated as (final wet weight minus initial wet weight/initial wet weight)×100 and HCO3^- dependent swelling would be the increased swelling of slices due to added HCO3^- in media containing 28-29 mmol K^+. Such HCO3^- stimulated swelling is not seen in medium with a normal K^+ concentration (4 to 5 mmol).
The (1) in vitro cat cerebrocortical tissue slice assay, (2) the in vitro primary rat astrocyte culture assay and (3) the in vivo cat head injury assay. The first assay, the in vitro cat cerebrocortical tissue slice assay has been described by Marshall, L. F.; Shapiro, H. M.; Smith, R. W. In "Seminars in Neurological Surgery: Neural Trauma"; Popp, A. J.; Bourke, R. S.; Nelson, L. R.; Kimelberg, H, K,. Eds.; Raven Press: New York, 1979; p. 347, by Bourke, R. S.; Kimelberg, H, K.; Daze, M. A. in Brain Res. 1978, 154, 196, and by Bourke, R. S.; Kimelberg, H. K,; Nelson, L. R. in Brain Res. 1976, 105, 309. This method constitutes a rapid and accurate method of determining the intrinsic chloride inhibitory properties of the compounds of the invention in the target tissue.
Using in vitro cat cerebrocortical tissue slice assay, described in Example 1, compounds of the present invention can be tested for activity. This test provides the principal in vitro evaluation and consists of a determination of concentration vs. response curve. The addition of HCO3^- to isotonic, K^+ -rich saline-glucose incubation media is known to specifically stimulate the transport of Cl^- coupled with Na^+ and an osmotic equivalent of water in incubating slices of mammalian cerebral cortex. […] After addition of drug to the incubation media, detailed drug concentration-response curves are then obtained. The data are expressed as percent HCO3^- -stimulated swelling vs. drug concentration, from which the concentration of drug providing 50% inhibition of HCO3^- -stimulated swelling (I50 in molarity) is interpolated.
Adult cats of 2-3 kg body weight are employed in tissue slice studies. Prior to sacrifice, the animals are anesthetized with ketamine hydrochloride (Ketaset), 10 mg/kg intramuscularly. […]

Assay [2] relates to clinical cases of head injury. The conditions noted are these: cited from earlier work.
The test system of the next assay is astroglial edema. The conditions noted are these: cited from earlier work.
A further assay concerns experimental head injury. The conditions noted are these: cited from earlier work.

Consider `O=C(O)COc1cc2c(c(Cl)c1Cl)C1=CC(=O)CCC1(CCO)C2` (racemic) [Example 2, {[5,6-Dichloro-9a-(2-hydroxyethyl)-3-oxo-2,3,9,9a-tetrahydro-1H-fluoren-7-yl]oxy}acetic acid], for which the inhibition at 0.1 µM in assay [1] (Conc. 10^-7 M) was determined as 19%. Testing at 0.01 µM in assay [1] (Conc. 10^-8 M) gave an inhibition of 92%. In assay [1] (Conc. 10^-9 M), this molecule showed an inhibition at 0.001 µM of 75%. The molecule also returned an inhibition at 0.0001 µM in assay [1] (Conc. 10^-10 M) of 85%. This molecule also came in with an inhibition at 10 pM in assay [1] (Conc. 10^-11 M) of 53%. In assay [1] (Conc. 10^-12 M), at 1 pM the inhibition was 15%.
As to `C=C(CC)C(=O)c1ccc(OCC(=O)O)c(Cl)c1Cl` [ethacrynic acid], the “reducing mortality in clinical cases of head injury” value in assay [2] is listed as “effective in reducing mortality in clinical cases of head injury”. In the assay on astroglial edema, the “activity in in vitro assay” value is reported as “exhibited activity”. Also, the “activity in in vivo assay” value with experimental head injury is on record as “exhibited activity”.

As usually defined, the inhibition is the drop in the measured response relative to a control, in per cent. The low end stands for a response near the control, the high end for a response far below the control.
